Source: article PMC5933338 (Drug Design, Development and Therapy, 2018)

Biological target: wild type (WT) A/M2 protein (Influenza A virus, UniProt P0DOF5)
Test: cell-based

Chain of wild type (WT) A/M2 protein (P0DOF5 whole entry, looked up): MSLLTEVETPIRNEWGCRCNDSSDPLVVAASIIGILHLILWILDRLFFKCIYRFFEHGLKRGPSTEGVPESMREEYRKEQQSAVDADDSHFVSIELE

CCCCNC(C)C12CC3CC(CC(C3)C1)C2 (centres unmarked) [Compound 5a, (1-Adamantan-1-yl-ethyl)-butyl-amine]
M2 WT inhibitory activity relative to that of 4c (100 µM, 5a versus rimantadine dimer 4c): approximately fourfold
inhibition at 100 µM (read-out: percentage inhibition of A/M2 current (WT)): 40%
